Test results taken from paper PMC4608580, “Synthesis and Evaluation of Biological Activity of Antimicrobial – Pro-Proliferative Peptide Conjugates” (PLoS ONE, 2015).

Assays:
[1] = system: immortalized human HaCaT keratinocytes; test: Cell proliferation assay (MTT); format: cell-based; details: 72 h; for Effect on HaCaT cell viability/proliferation (MTT), in words / Effect on HaCaT cell viability (MTT), in words: serum-free DMEM; for Effect on HaCaT cell viability/proliferation (MTT), in words: whole range 1–50 μg/mL, vs. control without peptide, triplicate; for Effect on HaCaT cell viability (MTT), in words: peptide at 50 μg/mL; for Concentration above which the conjugate is cytotoxic: MTT, cell type not named in the sentence (keratinocytes and fibroblasts tested)
Method: (§1) In our study two kind of cells were used: immortalized human HaCaT keratinocytes (DKFZ Heidelberg, Germany) and primary dermal fibroblasts obtained from 3 healthy donors. Both types of the used cell lines were grown in Dulbecco's modified Eagle's medium (DMEM) (Sigma–Aldrich, Germany), that contained […] of glucose, […] of L-glutamine, sodium pyruvate and sodium bicarbonate. Additionally, medium was supplemented with 10% of FCS (fetal calf serum, Sigma-Aldrich, Germany), 100 U/mL of penicillin and 100 μg/mL streptomycin (Sigma-Aldrich, Germany). The cells were grown in culture dishes (BD, USA) under standard conditions in a humidified atmosphere with 5% CO2 at 37°C and medium was changed every 2 days.
(§2) The fibroblasts and keratinocytes were seeded at density of 4500 and 6000 cells per well, respectively, into 96-well plates suspended in a medium supplemented with 10% of FCS. After 24 h the media were exchanged with serum- and antibiotic- free DMEM and tested peptides dissolved in PBS were added yielding final concentration ranging from 1 to 50 μg/mL. Cells were incubated for the next 24 hours, when the medium was exchanged again and fresh portion of peptides (used at the same concentrations as previously) was added. Incubation was continued for the next 48 hours (the overall time of cell exposition to peptide was 72 h). At the end of the experiment cells were treated with 20 μL of MTT (5 mg/mL in PBS). After 3 h at 37°C under 5% CO2 medium was discarded and replaced by 6mM HCl in isopropanol. After 15 min when the purple crystals of formazan were fully solubilized, absorbance was read at 570 nm with a plate reader. The optical density reflects the level of cell viability as MTT is converted in purple formazan product only in the presence of viable mitochondria of the living cells.
Fig 1 Pro-proliferative activity of the tested peptides towards human keratinocytes (A) and fibroblasts (B). Cells were incubated for 72 hours in serum-free DMEM medium in the presence of peptides applied at concentrations of 1,10, 25 and 50 μg/mL, respectively. The data represents results of MTT assay expressed as the percentage of the cell viability in comparison to their control sample (cells incubated in serum-free DMEM without tested peptides), additional positive control corresponds to the cells incubated in the presence of 10% FCS. All experiments were performed independently in triplicate. *P < 0.05, **P < 0.01, ***P < 0.001 vs. control.
In order to evaluate a long-term effect of peptides, experiments were carried out for 72 hours. Before addition of the tested compounds, the cell medium was exchanged for the fresh one not containing any serum or antibiotic.

[2] = system: human primary dermal fibroblasts; test: Cell migration assay (in vitro scratch test); format: cell-based; details: 25 μg/mL, 24 h
Method: (§3) Biopsies of healthy human skin were obtained aseptically from three donors (47–69 years old) undergoing circumcision after obtaining their written informed consent. All the procedures were approved by the Ethics Committee of Medical University of Gdansk (NKEBN/483/2011. Issued: 2011-12-19). The samples were washed several times with sterile PBS (Sigma-Aldrich, Germany) containing antibiotic (200 U/mL penicillin and 200 μg/mL streptomycin), after which, the subcutaneous tissue was cut off with a sharp blade. The resulting sheets were cut into small fragments, washed two times with sterile PBS and treated with 6 U/mL dispase II (BD, USA) overnight at 4°C to separate epidermis and dermis. The dermis was then digested with 1.0 mg/mL collagenase type I (from Clostridium histolyticum Sigma-Aldrich, Germany) for 2 hours at 37°C to isolate fibroblasts. Cells were used between the 2nd and 4th passage in all experiments.
Fibroblasts and keratinocytes were seeded (5x10^5 cells/well) in 6-well plates. When desired monolayer confluence was reached, cells were starved for 24 hours in serum-free DMEM. The monolayer was scratched then with 200μL-pipette tip. […] The wounded areas were then photographed by means of Zeiss Observer D1 microscope equipped with camera AxioCam and analyzed with AxioVision software (Carl Zeiss, Germany). Migration activity of the cells treated with the tested peptides were expressed as the percentage of the wounded area with respect to the control probe (cell cultures without any of the peptide), assumed as 100%.
An in vitro scratch test was performed to investigate the effect of the analyzed compounds on keratinocytes and fibroblasts migration. […]
Fig 2 Effect of the peptides on HaCaT keratinocytes and fibroblasts cell migration in the in vitro scratch test. […] Migration was analyzed after 24 hours by means of Zeiss Observer D1 microscope, wounding areas were analyzed with AxioVision software and expressed as the percentage of the wound width in comparison to the control sample (cells incubated in DMEM without FCS). […]

[3] = system: human primary dermal fibroblasts; test: Cell proliferation assay (MTT); format: cell-based; details: 72 h, serum-free DMEM, peptide at 25 and 50 μg/mL
Method: as §3, §1
as §2, with “At the end of the experiment cells were treated with 20 μL of MTT (5 mg/mL in PBS). After 3 h at 37°C under 5% CO2 medium was discarded and replaced by 6mM HCl in isopropanol.” left out, “The optical density reflects the level of cell viability as MTT is converted in purple formazan product only in the presence of viable mitochondria of the living cells.” left out
Fig 1 Pro-proliferative activity of the tested peptides towards human keratinocytes (A) and fibroblasts (B). […] The data represents results of MTT assay expressed as the percentage of the cell viability in comparison to their control sample (cells incubated in serum-free DMEM without tested peptides), additional positive control corresponds to the cells incubated in the presence of 10% FCS. […]

[4] = system: HaCaT keratinocytes; test: Cell migration assay (in vitro scratch test); format: cell-based, human; details: 25 μg/mL, 24 h, serum-free DMEM, Mitomycin C 5 μg/mL, vs. control without peptide, three independent experiments
Method: Fibroblasts and keratinocytes were seeded (5x10^5 cells/well) in 6-well plates. When desired monolayer confluence was reached, cells were starved for 24 hours in serum-free DMEM. The monolayer was scratched then with 200μL-pipette tip. The floating cells and cell debris were removed by double washing in PBS, further replaced with a fresh serum-free medium. Wounded monolayers were incubated for the next 24 h in the presence of tested peptides used at concentration of 25 μg/mL and 5 μg/mL of Mitomycin C (Sigma Aldrich) to prevent proliferation. At the end of the experiment medium was removed and the cells were fixed with 3.7% PFA for 5 min, stained for the next 30 min with 0.05% crystal violet solution, washed several times with distilled water and the plates were left inverted for a couple of minutes to drain. The wounded areas were then photographed by means of Zeiss Observer D1 microscope equipped with camera AxioCam and analyzed with AxioVision software (Carl Zeiss, Germany). Migration activity of the cells treated with the tested peptides were expressed as the percentage of the wounded area with respect to the control probe (cell cultures without any of the peptide), assumed as 100%.
An in vitro scratch test was performed to investigate the effect of the analyzed compounds on keratinocytes and fibroblasts migration. Evaluation was based on the efficiency of the invasion of the monolayer cells to the prewounded area within 24 h after stimulation with the appropriate compound added at concetration of 25μg/mL.
Fig 2 Effect of the peptides on HaCaT keratinocytes and fibroblasts cell migration in the in vitro scratch test. HaCaT cells and fibroblasts were grown in 6-well plates until the 100% confluence was reached, then cells were starved for the next 12 hours in DMEM without 10% FCS and scratched once vertically with a 200μL pipette tip. After being washed two times with sterile PBS, a fresh portion of DMEM medium was added and cells were treated with the tested peptides applied at their optimal doses (25 μg/mL). Migration was analyzed after 24 hours by means of Zeiss Observer D1 microscope, wounding areas were analyzed with AxioVision software and expressed as the percentage of the wound width in comparison to the control sample (cells incubated in DMEM without FCS). Control+ FCS corresponds to the sample with cells incubated in the medium containing 10% FCS and was treated as the additional positive control. Data represent the mean ± SD of three independent experiments. *P < 0.05, **P < 0.01, ***P < 0.001 vs. control.

| Substance | Effect on HaCaT cell viability/proliferation (MTT), in words [1] | Inhibitory effect on fibroblast migration in comparison to the control ([2]; scratch test) [%] | Effect on fibroblast viability (MTT), in words [3] | Effect on keratinocyte migration (scratch test), in words [4] | Effect on HaCaT cell viability (MTT), in words [1] | Concentration above which the conjugate is cytotoxic [1] | Effect on fibroblast migration (scratch test), in words ([2]; serum-free DMEM, Mitomycin C 5 μg/mL, vs. control without peptide, three independent experiments) |
| --- | --- | --- | --- | --- | --- | --- | --- |
| IKKILSKIKKLL-NH2 [DK5, Lys-rich derivative of amphibian AMP temporin-1CEb, …-NH2, reference compound] | negative dose-response relationship | ~50 |  |  |  |  |  |
| YAGFLR-PEG-IKKILSKIKKLL-NH2 [DAL-PEG-DK5, conjugate of dalargin and DK5 joined by PEG-linker] | negative dose-response relationship |  | lowest cell viability | neutral or slightly stimulative | lowest cell viability | higher than 25 μg/mL | neutral or slightly stimulative |
| YAGFLR-PEG-IKKILSKIKKLLK-NH2 [DAL-PEG-LK6, conjugate of dalargin and LK6 joined by PEG-linker] |  |  | lowest cell viability |  | cytotoxic effect | higher than 25 μg/mL |  |
